Like-named read-outs stand apart in the source and are kept apart here.
How the values were obtained:
[1] = target: His-tagged KRAS G12D protein (Homo sapiens (Human), UniProt P01116, G12D); assay: KRAS G12D TR-FRET Assay; type: binding
Summary of the method: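 His-tagged KRAS G12D (diluted to 20 nM in pH 7.4 HEPES buffer with 10 mM MgCl2 and 10 μM GDP) was preincubated with titrated compound for 30 min at room temperature. Biotinylated KRPep-2d peptide (diluted to 20 nM) was then added for 1 h, and displacement was monitored by TR-FRET.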

[2] = target: GDP-bound KRAS protein (aa 1-169), containing both G12D and C118A amino acid substitutions (Homo sapiens (Human), UniProt P01116, C118A/G12D); assay: KRAS G12D Coupled Nucleotide Exchange Assay; type: biochemical
Sequence of GDP-bound KRAS protein (aa 1-169), containing both G12D and C118A amino acid substitutions (P01116 other isoform, or with tags, fused parts or gaps G12D/C118A): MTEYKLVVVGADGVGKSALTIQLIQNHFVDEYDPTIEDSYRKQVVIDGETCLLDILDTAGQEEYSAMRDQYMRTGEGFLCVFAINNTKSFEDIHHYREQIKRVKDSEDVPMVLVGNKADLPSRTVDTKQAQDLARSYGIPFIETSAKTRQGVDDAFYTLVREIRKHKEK

[3] = tested on: Phosphorylation of ERK1/2 in AsPC-1 cells; assay: Phospho-ERK1/2 MSD Assay; type: cell-based, human; conditions: Homo sapiens, ASPC1, 2 h, read-out: 2 h p-ERK (AsPC-1 cells), IC50
Protocol: AsPC-1 (ATCC® CRL-1682™) cells were cultured in RPMI 1640 Medium (ThermoFisher Scientific 11875093) containing 10% fetal bovine serum (ThermoFisher Scientific 16000044) and 1× penicillin-streptomycin-glutamine (ThermoFisher Scientific 10378016). Sixteen hours prior to compound treatment, AsPC-1 cells were seeded in 96-well cell culture plates at a density of 25,000 cells/well and incubated at 37° C., 5% CO2. A compound dose-response titration was diluted in growth media, added to appropriate wells of a cell culture plate, and then incubated at 37° C., 5% CO2 for 2 hours. Following compound treatment, cells were washed with ice-cold Dulbecco's phosphate-buffered saline, no Ca^2+ or Mg^2+ (ThermoFisher Scientific 14190144), and then lysed in RIPA buffer (50 mM Tris-HCl pH 7.5, 1% Igepal, 0.5% sodium deoxycholate, 150 mM NaCl, and 0.5% sodium dodecyl sulfate) containing protease inhibitors (Roche 4693132001) and phosphatase inhibitors (Roche 4906837001). Phosphorylation of ERK1/2 in compound-treated lysates was assayed using Phospho-ERK1/2 Whole Cell Lysate kits (Meso Scale Discovery K151DWD) according to the manufacturer's protocol. Assay plates were read on a Meso Scale Discovery Sector Imager 6000, and data were analyzed using a 4-parameter logistic model to calculate IC50 values.

[4] = read-out: KRAS G12D Binding IC50
[5] = read-out: KRAS G12D Coupled Exchange IC50
[6] = TR-FRET, read-out: KRAS G12D Binding
[7] = 2 hours compound pre-incubation, read-out: KRAS G12D Coupled Exchange

Sequence of His-tagged KRAS G12D protein (P01116 other isoform, or with tags, fused parts or gaps G12D): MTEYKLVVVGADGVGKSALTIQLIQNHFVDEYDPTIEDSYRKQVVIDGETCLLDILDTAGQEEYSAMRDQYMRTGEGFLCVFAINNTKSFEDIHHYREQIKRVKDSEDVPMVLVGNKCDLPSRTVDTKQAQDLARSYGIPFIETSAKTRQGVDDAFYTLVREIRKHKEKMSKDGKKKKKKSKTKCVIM

| Compound | IC50 [1, 4] [nM] | IC50 [2, 5] [nM] | IC50 [3] [nM] | IC50 [1, 6] [nM] | IC50 [2, 7] [nM] |
| --- | --- | --- | --- | --- | --- |
| Cc1c2ncc3c(nc(OCC4CN(C)CCO4)nc13)N1CCC[C@](C)(C1)NC(=O)CCCc1c(F)ccc3cc(O)cc-2c13 (mixture of isomers) [Example 24] | 20 | 18 | 1140 | – | – |
| Cc1cc2[nH]ncc2c2c1CCC[C@H](F)C(=O)N[C@@H]1CCCN(C1)c1nc(OC[C@@]34CCCN3C[C@H](F)C4)nc3c(F)c-2ncc13 (mixture of isomers) [Example 49, (17R)-14,30-difluoro-24-(((2R,7aS)-2-fluorotetrahydro-1H-pyrrolo[1,2-a]pyrrol-7a(5H)-yl)methoxy)-9-methyl-5,6,16,21,23,25,29-heptaazahexacyclo[24.3.1.1~17,21~.0~2,10~.0~3,7~.0~22,27~]hentriaconta-1(30),2,4,7,9,22,24,26,28-nonaen-15-one] | 7 | 5 | 116 | – | – |
| Cc1cc2[nH]ncc2c2c1CCCC(=O)OCC1(O)CCCN(C1)c1nc(OC[C@@]34CCCN3C[C@H](F)C4)nc3c(F)c-2ncc13 (mixture of isomers) [Example 103] | 31 | 32 | 1990 | – | – |
| O=C1OCCc2c(Cl)cc3[nH]ncc3c2-c2ncc3c(nc(OC[C@@]45CCCN4C[C@H](F)C5)nc3c2F)N2CCC[C@@]3(C[C@H](CO3)O1)C2 [Example 314, (1R,4R)-11-chloro-33-fluoro-25-(((2R,7aS)-2-fluorotetrahydro-1H-pyrrolo[1,2-a]pyrrol-7a(5H)-yl)methoxy)-2,5,7-trioxa-14,15,20,24,26,28-hexaazaheptacyclo[26.3.1.1~1,4~.1~19,23~.0~10,18~.0~13,17~.0~22,27~]tetratriaconta-10,12,15,17,19(33),20,22,24,26-nonaen-6-one] | – | – | 590 | – | – |
| O=C1OCCCCc2c(Cl)cc3[nH]ncc3c2-c2ncc3c(nc(OC[C@@]45CCCN4C[C@H](F)C5)nc3c2F)N2CCOC[C@H](C2)O1 [Example 324, (27S)-18-chloro-33-fluoro-4-(((2R,7aS)-2-fluorotetrahydro-1H-pyrrolo[1,2-a]pyrrol-7a(5H)-yl)methoxy)-24,26,29-trioxa-1,3,5,9,14,15-hexaazahexacyclo[25.4.1.1~6,10~.0~2,7~.0~11,19~.0~12,16~]tritriaconta-2,4,6,8,10(33),11,13,16,18-nonaen-25-one] | 61 | 42 | – | – | – |
| CN1CCC[C@H]1COc1nc2c3cnc(c(F)c3n1)-c1c(c(Cl)cc3[nH]ncc13)CCCOC(=O)O[C@@]1(CF)COCCN2C1 [Example 337, (26R)-18-chloro-32-fluoro-26-(fluoromethyl)-4-(((2S)-1-methyl-2-pyrrolidinyl)methoxy)-23,25,28-trioxa-1,3,5,9,14,15-hexaazahexacyclo[24.4.1.1~6,10~.0~2,7~.0~11,19~.0~12,16~]dotriaconta-2,4,6,8,10(32),11,13,16,18-nonaen-24-one] | 2440 | 790 | – | – | – |
| Cn1ncc2cc(Cl)c3c(c21)-c1ncc2c(nc(OC[C@@]45CCCN4C[C@H](F)C5)nc2c1F)N1CCOC[C@H](C1)OC(=O)OCCC3 [Example 364, (26S)-18-chloro-32-fluoro-4-(((2R,7aS)-2-fluorotetrahydro-1H-pyrrolo[1,2-a]pyrrol-7a(5H)-yl)methoxy)-13-methyl-23,25,28-trioxa-1,3,5,9,13,14-hexaazahexacyclo[24.4.1.1~6,10~.0~2,7~.0~11,19~.0~12,16~]dotriaconta-2,4,6,8,10(32),11,14,16,18-nonaen-24-one] | 102 | 20 | – | – | – |
| O=C1OCC[C@H]2CCc3cc4[nH]ncc4c(c32)-c2ncc3c(nc(OC[C@@]45CCCN4C[C@H](F)C5)nc3c2F)N2CCOC[C@H](C2)O1 [Example 368, (16S,22R)-34-fluoro-8-(((2R,7aS)-2-fluorotetrahydro-1H-pyrrolo[1,2-a]pyrrol-7a(5H)-yl)methoxy)-14,17,19-trioxa-3,7,9,11,28,29-hexaazaheptacyclo[20.9.1.1~2,6~.1~11,16~.0~5,10~.0~25,32~.0~27,31~]tetratriaconta-1(31),2(34),3,5,7,9,25(32),26,29-nonaen-18-one] | 1230 | 783 | – | – | – |
| O[C@H]1C[C@@H]2CN(C1)c1nc(OC[C@@]34CCCN3C[C@H](F)C4)nc3c(F)c(ncc13)-c1c(c(Cl)cc3[nH]ncc13)CCCc1nc2no1 [Example 378] | – | – | – | 34 | 15 |
| Fc1c2ncc3c(nc(OC[C@@]45CCCN4C[C@H](F)C5)nc13)N1CCC[C@@H](C1)c1cnc(o1)CCCc1c(Cl)cc3[nH]ncc3c1-2 [Example 386, (18S)-9-chloro-31-fluoro-25-(((2R,7aS)-2-fluorotetrahydro-1H-pyrrolo[1,2-a]pyrrol-7a(5H)-yl)methoxy)-33-oxa-5,6,15,22,24,26,30-heptaazaheptacyclo[25.3.1.1~14,17~.1~18,22~.0~2,10~.0~3,7~.0~23,28~]tritriaconta-1(31),2,4,7,9,14,16,23,25,27,29-undecaene] | – | – | – | 3730 | 1810 |
| Fc1c2ncc3c(nc(OC[C@@]45CCCN4C[C@H](F)C5)nc13)N1CCO[C@@H](C1)c1coc(n1)CCCc1c(Cl)cc3[nH]ncc3c1-2 [Example 389, (18S)-9-chloro-31-fluoro-25-(((2R,7aS)-2-fluorotetrahydro-1H-pyrrolo[1,2-a]pyrrol-7a(5H)-yl)methoxy)-15,19-dioxa-5,6,22,24,26,30,33-heptaazaheptacyclo[25.3.1.1~14,17~.1~18,22~.0~2,10~.0~3,7~.0~23,28~]tritriaconta-1(31),2,4,7,9,14(33),16,23,25,27,29-undecaene] | – | – | – | 3960 | 1020 |

The remaining lines, values ahead:

| IC50 [1, 4] [nM] | IC50 [2, 5] [nM] | IC50 [3] [nM] | IC50 [1, 6] [nM] | IC50 [2, 7] [nM] | Compound |
| --- | --- | --- | --- | --- | --- |
| 19 | 14 | 1380 | – | – | Cc1cc2[nH]ncc2c2c1CCCC(F)C(=O)N[C@@H]1COCCN(C1)c1nc(OC[C@@]34CCCN3C[C@H](F)C4)nc3c(F)c-2ncc13 (mixture of isomers) [Example 55] |
| 46 | 34 | 1660 | – | – | Cc1cc2[nH]ncc2c2c1CCCCC(=O)N[C@]1(C)COCCN(C1)c1nc(OC[C@@]34CCCN3C[C@H](F)C4)nc3c(F)c-2ncc13 (mixture of isomers) [Example 67] |
| – | – | 213 | – | – | Cc1cc2[nH]ncc2c2c1CCCOC(=O)N1CC[C@@H]3CCN(C[C@@H]31)c1nc(OC[C@@]34CCCN3C[C@H](F)C4)nc3c(F)c-2ncc13 (mixture of isomers) [Example 75, (28S,32R)-33-fluoro-4-(((2R,7aS)-2-fluorotetrahydro-1H-pyrrolo[1,2-a]pyrrol-7a(5H)-yl)methoxy)-18-methyl-23-oxa-1,3,5,9,14,15,25-heptaazaheptacyclo[23.5.2.1~6,10~.0~2,7~.0~11,19~.0~12,16~.0~28,32~]tritriaconta-2,4,6,8,10(33),11,13,16,18-nonaen-24-one] |
| 3240 | 2110 | – | – | – | CN(C)CC1(COc2nc3c4cnc(c(F)c4n2)-c2c(c(Cl)cc4[nH]ncc24)CCCOC(=O)O[C@@]2(C)COCCN3C2)CC1 [Example 332, (26R)-18-chloro-4-((1-((dimethylamino)methyl)cyclopropyl)methoxy)-32-fluoro-26-methyl-23,25,28-trioxa-1,3,5,9,14,15-hexaazahexacyclo[24.4.1.1~6,10~.0~2,7~.0~11,19~.0~12,16~]dotriaconta-2,4,6,8,10(32),11,13,16,18-nonaen-24-one] |
| 938 | 631 | – | – | – | C[C@@]12COCCN(C1)c1nc(OC[C@@]34CCCN3C[C@H](F)C4)nc3c(F)c(ncc13)-c1c3c(cc4[nH]ncc14)CC[C@@H]3CCOC(=O)O2 [Example 366, (16S,22R)-34-fluoro-8-(((2R,7aS)-2-fluorotetrahydro-1H-pyrrolo[1,2-a]pyrrol-7a(5H)-yl)methoxy)-16-methyl-14,17,19-trioxa-3,7,9,11,28,29-hexaazaheptacyclo[20.9.1.1~2,6~.1~11,16~.0~5,10~.0~25,32~.0~27,31~]tetratriaconta-1(31),2(34),3,5,7,9,25(32),26,29-nonaen-18-one] |
| – | – | – | 1810 | 1170 | Fc1c2ncc3c(nc(OC[C@@]45CCCN4C[C@H](F)C5)nc13)N1CCO[C@@H](COCC[C@H]3C[C@H]3c3c(Cl)cc4[nH]ncc4c3-2)C1 [Example 393, (11R,13R,18R)-9-chloro-31-fluoro-25-(((2R,7aS)-2-fluorotetrahydro-1H-pyrrolo[1,2-a]pyrrol-7a(5H)-yl)methoxy)-16,19-dioxa-5,6,22,24,26,30-hexaazaheptacyclo[25.3.1.1~18,22~.0~2,10~.0~3,7~.0~11,13~.0~23,28~]dotriaconta-1(31),2,4,7,9,23,25,27,29-nonaene] |
